# Measurements as given in paper PMC13014258 (JACS Au, 2026).
# Test system: CTSB
# Assay: CTSB inhibitor study, CTSB channel fluorescence of the probes in cells
# Format: cell-based
# Settings: HeLa cells, CA-074 500 nM 15 min, n = 30
structure (smiles),measurement,setting,value
CCCNC(=O)[C@H]1O[C@@H]1C(=O)N[C@H](C(=O)N1CCC[C@H]1C(=O)O)[C@@H](C)CC [CTSB inhibitor],CTSB (blue) channel intensities of MSS2 and MSS3 in inhibitor-treated cells at resting state,then MSS2/MSS3 10 μM 5 min,significantly reduced
same,CTSB (blue) channel intensities of MSS4 and MSS5 in inhibitor-treated cells at resting state,then MSS4/MSS5 10 μM 5 min,significantly reduced
